This is an account of results in paper PMC3236808 (2011).

The experiment concerns the target PRMT1 (Rattus norvegicus, UniProt Q63009). Kind of experiment: scintillation proximity assay of 3H-SAM methylation of biotinylated H4 peptide. The class given is biochemical. (In general: In a scintillation proximity assay essentially only radioactivity close to the scintillant gives light.)

Sequence of PRMT1 (Q63009 whole entry): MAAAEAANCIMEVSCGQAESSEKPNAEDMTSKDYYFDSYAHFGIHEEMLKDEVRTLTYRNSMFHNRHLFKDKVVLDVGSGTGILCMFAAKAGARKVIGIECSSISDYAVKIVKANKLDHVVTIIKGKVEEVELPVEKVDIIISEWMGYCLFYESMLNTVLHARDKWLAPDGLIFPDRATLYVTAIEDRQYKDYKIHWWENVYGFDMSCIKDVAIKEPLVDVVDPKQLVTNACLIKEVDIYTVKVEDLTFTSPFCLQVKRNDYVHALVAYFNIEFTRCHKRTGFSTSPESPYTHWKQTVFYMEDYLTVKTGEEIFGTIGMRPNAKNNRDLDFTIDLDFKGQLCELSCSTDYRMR

`Nc1ncnc2c1ncn2[C@@H]1O[C@H](CSCC[C@H](N)C(=O)O)[C@@H](O)[C@H]1O` [SAH, S-adenosyl-L-homocysteine] had an IC50 of 300 nM.

The term IC50 denotes the midpoint of a concentration-inhibition curve. A lower IC50 goes with greater potency in that assay.
